Results as given in the CombiSolv-Exp solvation set (Vermeire and Green 2021).
Blank lines part the entries; values can stand above or below the compound they belong to.

Experiment: solvent given as SMILES
[1] = in CCCCCCCCC=CCCCCCCCC(=O)OCC(COC(=O)CCCCCCCC=CCCCCCCCC)OC(=O)CCCCCCCC=CCCCCCCCC

Compound: CCCCN(CC)c1c([N+](=O)[O-])cc(C(F)(F)F)cc1[N+](=O)[O-]
solvation free energy, 298 K (in O): -3.51 kcal/mol

Compound: ClC(Cl)=C(c1ccc(Cl)cc1)c1ccc(Cl)cc1
solvation free energy, 298 K [1]: -12.8 kcal/mol
solvation free energy, 298 K (in CCCCCCCCO): -13.2 kcal/mol
solvation free energy, 298 K (in O): -3.78 kcal/mol

Compound: CCCN(CC1CC1)c1c([N+](=O)[O-])cc(C(F)(F)F)cc1[N+](=O)[O-]
solvation free energy, 298 K (in O): -2.45 kcal/mol

Compound: COc1ccc(NS(=O)(=O)c2ccc(N)cc2)nn1
solvation free energy, 298 K (in O): -21.1 kcal/mol

Compound: Cc1cc(C)c2ccccc2c1
solvation free energy, 298 K (in O): -2.47 kcal/mol

Compound: COS(C)(=O)=O
solvation free energy, 298 K (in O): -4.87 kcal/mol

Compound: COc1cc(C(C)=O)ccc1O
solvation free energy, 298 K (in CCC(C)=O): -12.2 kcal/mol
solvation free energy, 298 K (in CCCO): -11.8 kcal/mol
solvation free energy, 298 K (in Cc1ccccc1): -10.8 kcal/mol
solvation free energy, 298 K (in ClC=CCl): -12 kcal/mol

Compound: N#Cc1ccncc1
solvation free energy, 298 K (in O): -6.02 kcal/mol

Compound: ClCCBr
solvation free energy, 298 K (in O): -1.95 kcal/mol

Compound: c1ccsc1
solvation free energy, 298 K (in CC(C)O): -3.75 kcal/mol
solvation free energy, 298 K (in CCCCCCC): -4.09 kcal/mol
solvation free energy, 298 K (in CCCO): -3.71 kcal/mol
solvation free energy, 298 K (in CN1CCCC1=O): -4.68 kcal/mol
solvation free energy, 298 K (in O): -1.39 kcal/mol
solvation free energy, 298 K (in O=CN1CCOCC1): -4.39 kcal/mol
solvation free energy, 298 K (in c1ccccc1): -4.65 kcal/mol

Compound: CCCS
solvation free energy, 298 K (in CC(C)CC(C)(C)C): -3.78 kcal/mol
solvation free energy, 298 K (in O): -0.99 kcal/mol

Compound: C1=CCCCCC1
solvation free energy, 298 K (in CN1CCCC1=O): -4.22 kcal/mol
solvation free energy, 298 K (in CN(C)C=O): -4.23 kcal/mol
solvation free energy, 298 K (in O): 0.7 kcal/mol

Compound: CCCCCCCCCCCCCCCCCCCCCCCC
solvation free energy, 298 K (in CC(=O)N(C)C): -16.4 kcal/mol
solvation free energy, 298 K (in CC(C)(C)O): -14.6 kcal/mol
solvation free energy, 298 K (in CC(C)O): -13.6 kcal/mol
solvation free energy, 298 K (in CCC(C)=O): -14.8 kcal/mol
solvation free energy, 298 K (in CCCCCCCCCCO): -15.2 kcal/mol
solvation free energy, 298 K (in CCCCCCO): -14.2 kcal/mol
solvation free energy, 298 K (in CCCCCO): -14.1 kcal/mol
solvation free energy, 298 K (in CCCCO): -13.9 kcal/mol
solvation free energy, 298 K (in CCCCOC(C)=O): -15.4 kcal/mol
solvation free energy, 298 K (in CCCO): -13.8 kcal/mol
solvation free energy, 298 K (in CCO): -13.4 kcal/mol
solvation free energy, 298 K (in CN(C)C=O): -16.4 kcal/mol
solvation free energy, 298 K (in CO): -12.3 kcal/mol
solvation free energy, 298 K (in COC(C)(C)C): -16.3 kcal/mol
solvation free energy, 298 K (in ClCCl): -16 kcal/mol
solvation free energy, 298 K (in O): 5.24 kcal/mol

Compound: CN1C(=O)C(O)N=C(c2ccccc2)c2cc(Cl)ccc21 (configuration not stated)
solvation free energy, 298 K (in CC(C)O): -18.1 kcal/mol
solvation free energy, 298 K (in CCCCCCO): -18.6 kcal/mol
solvation free energy, 298 K (in CCCCCO): -18.5 kcal/mol
solvation free energy, 298 K (in CCCCO): -18.5 kcal/mol
solvation free energy, 298 K (in CCCO): -18.5 kcal/mol
solvation free energy, 298 K (in CCO): -18.6 kcal/mol
solvation free energy, 298 K (in CN(C)C=O): -20 kcal/mol
solvation free energy, 298 K (in CO): -19.1 kcal/mol
solvation free energy, 298 K (in O): -15.2 kcal/mol
solvation free energy, 298 K (in O=C1CCCCC1): -19.6 kcal/mol

Compound: CCOc1ccccc1
solvation free energy, 298 K (in CCCCCC): -6.02 kcal/mol
solvation free energy, 298 K (in O): -2.22 kcal/mol

Compound: CSc1nc(N=[N+]=[N-])nc(NC(C)C)n1
solvation free energy, 298 K (in O): -8.19 kcal/mol

Compound: Clc1ccc(-c2ccc(Cl)cc2Cl)cc1
solvation free energy, 298 K (in CCCCCCCCO): -10.7 kcal/mol
solvation free energy, 298 K (in O): -2.77 kcal/mol

Next, values leading:

solvation free energy, 298 K (in O): -9.89 kcal/mol
Compound: CCNc1nc(NC(C)CC)nc(OC)n1 (configuration not stated)

solvation free energy, 298 K (in O): -5.51 kcal/mol
Compound: Cc1cnccn1

solvation free energy, 298 K (in O): -3.75 kcal/mol
Compound: C=C(C)C1CCC(C)C(=O)C1 (configuration not stated)

solvation free energy, 298 K (in C=CCCCCCCC=C): -4.39 kcal/mol
solvation free energy, 298 K (in C=CCCCCCCCCCCCCCC): -3.94 kcal/mol
solvation free energy, 298 K (in O): -6.34 kcal/mol
Compound: CCCC(=O)O

solvation free energy, 298 K (in O): -5.05 kcal/mol
Compound: CN(C)Cc1ccccc1

solvation free energy, 298 K (in O): -7.99 kcal/mol
Compound: CC(C)C(C)c1ccc(CC(=O)O)cc1 (configuration not stated)

solvation free energy, 298 K (in CCCCCCCCCCCCCCCC): -5.82 kcal/mol
solvation free energy, 298 K (in CCCCCCCCO): -7.26 kcal/mol
solvation free energy, 298 K (in NC=O): -4.31 kcal/mol
solvation free energy, 298 K (in O): -2.29 kcal/mol
Compound: CCCCCCCC=O

solvation free energy, 298 K (in NC=O): -4.37 kcal/mol
solvation free energy, 298 K (in O): -2.08 kcal/mol
Compound: CCCCCCCCC=O

solvation free energy, 298 K (in CC(C)CCCC(C)CCCC(C)CCCCC(C)CCCC(C)CCCC(C)C): -3.73 kcal/mol
solvation free energy, 298 K (in CCCCCCC): -4.04 kcal/mol
solvation free energy, 298 K [1]: -4.31 kcal/mol
solvation free energy, 298 K (in CCCCCCCCCCCCCCCC): -3.73 kcal/mol
solvation free energy, 298 K (in CCCCCCCCO): -4.34 kcal/mol
solvation free energy, 298 K (in CN1CCCC1=O): -4.76 kcal/mol
solvation free energy, 298 K (in CO): -4.96 kcal/mol
solvation free energy, 298 K (in O): -3.33 kcal/mol
solvation free energy, 298 K (in O=CN1CCOCC1): -4.45 kcal/mol
solvation free energy, 298 K (in [2H]O[2H]): -3.27 kcal/mol
Compound: CCC(=O)CC

solvation free energy, 298 K (in O): 0.63 kcal/mol
Compound: C=C1CCC23C(C)CCC(C(C)C)C2C13 (configuration not stated)

solvation free energy, 298 K (in O): 0.27 kcal/mol
Compound: CCCCCCCI

solvation free energy, 298 K (in O): -2.28 kcal/mol
Compound: CCCOC(=O)CCC

solvation free energy, 298 K (in CC(=O)N(C)C): -4.04 kcal/mol
solvation free energy, 298 K (in CCCCN(C=O)CCCC): -3.78 kcal/mol
solvation free energy, 298 K (in CCOC(C)=O): -4.05 kcal/mol
solvation free energy, 298 K (in CN1CCCC1=O): -3.79 kcal/mol
solvation free energy, 298 K (in CN1CCCCC1=O): -3.92 kcal/mol
solvation free energy, 298 K (in CN(C)C=O): -4.09 kcal/mol
solvation free energy, 298 K (in CNC(C)=O): -3.68 kcal/mol
solvation free energy, 298 K (in O): -2.86 kcal/mol
solvation free energy, 298 K (in O=CN1CCOCC1): -3.63 kcal/mol
Compound: CC(C)C=O

solvation free energy, 298 K (in O): -1.06 kcal/mol
Compound: C=CC(C)=CCC=C(C)CCC=C(C)C

solvation free energy, 298 K (in CCCCCCCC): -5.34 kcal/mol
solvation free energy, 298 K (in CCCCCCCCCC): -5.46 kcal/mol
Compound: CCCC(O)C(C)C (configuration not stated)

solvation free energy, 298 K (in O): -3.6 kcal/mol
Compound: CC(=O)OCC1=CCC2CC1C2(C)C (configuration not stated)

solvation free energy, 298 K (in C=CCCCCCCCCCCCCCC): -3.96 kcal/mol
solvation free energy, 298 K (in CC#N): -2.99 kcal/mol
solvation free energy, 298 K (in O): 2.93 kcal/mol
Compound: CCCCC(C)C

solvation free energy, 298 K (in O): -10.6 kcal/mol
Compound: CCNc1nc(NCC)nc(OC)n1

solvation free energy, 298 K (in O): -5.73 kcal/mol
Compound: COCC(OC)(OC)OC
